# Reference: US20100227921A1, “AMINO ACID AND PEPTIDE CARBAMATE PRODRUGS OF […] USES THEREOF” (SHIRE LLC, priority 2009, published 2010)
# Values joined by “and” are separate entries in the source; they are usually repeats but may differ in a detail not shown here. Equal entries are not always repeated. Where two headings read alike, the source gives them in different places. Marks after values point to notes of the source that are not given here.
# Experiments:
# [1] = Comparative bioavailability after oral or intravenous administration to monkeys (plasma LC-MS-MS); type: in vivo, cynomolgus monkey; conditions: for half-life: read-out: t½ of tapentadol valine carbamate (converted); for AUC(0-t): read-out: AUCt of tapentadol valine carbamate; for clearance: read-out: CL of tapentadol valine carbamate (converted); for Vd: read-out: Vss of tapentadol valine carbamate; for Tmax: cynomolgus
# Method: Test substances i.e., tapentadol and tapentadol valine carbamate were administered (either intravenously or orally) to a group of five male cynomolgus monkeys in a three way crossover design. The oral doses were given at 1 mg tapentadol base equivalents/kg while the intravenous dose was 0.5 mg/kg
# Blood samples were taken at various times after administration and submitted to analysis for the parent drug and tapentadol valine carbamate using a validated LC-MS-MS assay. Pharmacokinetic parameters derived from the plasma analytical data were determined using Win Nonlin.
# [2] = tested on: guinea pig small intestine myenteric plexus longitudinal muscle; assay: Electrical field stimulation response of isolated guinea pig small intestine smooth muscle (ex vivo); conditions: isolated guinea pig ileum
# Method: Strips of guinea pig small intestine myenteric plexus longitudinal muscle and mounted between platinum ring electrodes. The tissue was stretched to a steady tension of about 1 g and changes in force production were recorded using sensitive transducers.
# The optimal voltage for stimulation was determined while the tissue was paced with electrical field stimulation (EFS) at 14 Hz, with a pulse width of 0.5 msec (Trains of pulses for 20 seconds, every 50 seconds).
# EFS at optimal voltage continued throughout the protocol (stable responses=“baseline measurement of EFS”).
# The 3 test conditions employed were as follows:
# (1) Vehicle (deionised water, added at equivalent volume additions to test articles), (2) Tapentadol at 6 concentrations (10 nM, 100 nM, 1 μM, 3 μM, 10 μM & 30 μM) (3) Tapentadol valine carbamate at 6 concentrations (10 nM, 100 nM, 1 μM, 3 μM, 10 μM, & 30 μM).
# Following 10 minutes of baseline EFS, first addition of test article or vehicle (deionized water) was performed.
# Test concentrations were added in a non-cumulative manner with PSS washes between each addition. Next, TTX (Na+ channel blocker) was added to confirm EFS responses were elicited via nerve stimulation. EFS was then stopped.
# [3] = male monkey, i.v. tapentadol valine carbamate 0.5 mg tapentadol free base equiv/kg, individual animals 1-5
# [4] = male monkey, oral tapentadol valine carbamate 1 mg tapentadol free base equiv/kg, individual animals 1-5
# [5] = male, cynomolgus monkey, plasma, iv, 0.5 mg/kg, male monkey, i.v. tapentadol valine carbamate 0.5 mg tapentadol free base equiv/kg, individual animals 1-5
# [6] = male, cynomolgus monkey, plasma, iv, 0.5 mg/kg, male monkey, i.v. tapentadol valine carbamate 0.5 mg tapentadol free base equiv/kg, mean
# [7] = male, cynomolgus monkey, plasma, po, 1 mg tapentadol free base equiv/kg, male monkey, oral tapentadol valine carbamate 1 mg tapentadol free base equiv/kg, individual animals 1-5
# [8] = male, cynomolgus monkey, plasma, po, 1 mg tapentadol free base equiv/kg, male monkey, oral tapentadol valine carbamate 1 mg tapentadol free base equiv/kg, mean
smiles,measurement,setting,value
"CC[C@H](c1cccc(OC(=O)N[C@H](C(=O)O)C(C)C)c1)[C@H](C)CN(C)C (racemic) [Tapentadol valine carbamate, 2-[3-(3-Dimethylamino-1-ethyl-2-methyl-propyl)-phenoxycarbonylamino]-3-methyl-butyric acid]",Plasma concentration of tapentadol valine carbamate,"[1]; male monkey, i.v. tapentadol valine carbamate 0.5 mg tapentadol free base equiv/kg, 1 h, individual animals 1-5",205 ng/mL and 326 ng/mL and 274 ng/mL and 251 ng/mL
same,Plasma concentration of tapentadol valine carbamate,"[1]; male monkey, i.v. tapentadol valine carbamate 0.5 mg tapentadol free base equiv/kg, 2 h, individual animals 1-5",112.1 ng/mL and 115.5 ng/mL and 85.6 ng/mL and 87.7 ng/mL
same,Plasma concentration of tapentadol valine carbamate,"[1]; male monkey, i.v. tapentadol valine carbamate 0.5 mg tapentadol free base equiv/kg, 4 h, individual animals 1-5",20.0 ng/mL and 21.4 ng/mL and 12.2 ng/mL and 14.6 ng/mL
same,Plasma concentration of tapentadol valine carbamate,"[1]; male monkey, i.v. tapentadol valine carbamate 0.5 mg tapentadol free base equiv/kg, 6 h, individual animals 1-5",4.94 ng/mL and 6.10 ng/mL and 3.48 ng/mL and 4.20 ng/mL
same,Plasma concentration of tapentadol valine carbamate,"[1]; male monkey, i.v. tapentadol valine carbamate 0.5 mg tapentadol free base equiv/kg, 9 h, individual animals 1-5",1.04 ng/mL and 0.769 ng/mL and 1.89 ng/mL and 1.20 ng/mL and 1.35 ng/mL
same,AUC of tapentadol valine carbamate,[1]; [3],926 ng·h/mL and 1050 ng·h/mL and 915 ng·h/mL and 846 ng·h/mL
same,AUCt of tapentadol valine carbamate,[1]; [3],925 ng·h/mL and 1040 ng·h/mL and 912 ng·h/mL and 843 ng·h/mL
same,C0 of tapentadol valine carbamate,[1]; [3],794 ng/mL and 1020 ng/mL and 949 ng/mL and 1930 ng/mL and 1260 ng/mL
same,CL of tapentadol valine carbamate,[1]; [3],9 mL/min/kg and 7.97 mL/min/kg and 9.12 mL/min/kg and 8.18 mL/min/kg
same,Vss of tapentadol valine carbamate,[1]; [3],0.529 L/kg and 0.499 L/kg and 0.481 L/kg and 0.562 L/kg
same,t½ of tapentadol valine carbamate,[1]; [3],1.1 h
same,AUC of tapentadol valine carbamate,[1]; [4],219 ng·h/mL and 367 ng·h/mL and 368 ng·h/mL and 48 ng·h/mL and 436 ng·h/mL
same,AUCt of tapentadol valine carbamate,[1]; [4],216 ng·h/mL and 351 ng·h/mL and 358 ng·h/mL and 187 ng·h/mL and 432 ng·h/mL
same,Cmax of tapentadol valine carbamate,[1]; [4],150 ng/mL and 176 ng/mL and 153 ng/mL and 92.1 ng/mL and 249 ng/mL
same,T>50%Cmax of tapentadol valine carbamate,[1]; [4],0.5 h (4×) and 1 h
same,t½ of tapentadol valine carbamate,[1]; [4],3.35 h and 2.48 h and 1.86 h and 2.88 h
same,T>50%Cmax of tapentadol valine carbamate,"[1]; male monkey, oral tapentadol valine carbamate 1 mg tapentadol free base equiv/kg, median",0.5^a h
same,Plasma concentration of tapentadol valine carbamate,"[1]; male monkey, oral tapentadol valine carbamate 10 mg tapentadol free base equiv/kg, 0.5 h, individual animals 1-5",150 ng/mL and 176 ng/mL and 153 ng/mL and 34.7 ng/mL and 249 ng/mL
same,Plasma concentration of tapentadol valine carbamate,"[1]; male monkey, oral tapentadol valine carbamate 10 mg tapentadol free base equiv/kg, 0.5 h, mean",153 ng/mL
same,Plasma concentration of tapentadol valine carbamate,"[1]; male monkey, oral tapentadol valine carbamate 10 mg tapentadol free base equiv/kg, 1 h, individual animals 1-5",96.1 ng/mL and 126 ng/mL and 127 ng/mL and 92.1 ng/mL and 227 ng/mL
same,Plasma concentration of tapentadol valine carbamate,"[1]; male monkey, oral tapentadol valine carbamate 10 mg tapentadol free base equiv/kg, 1 h, mean",134 ng/mL
same,Plasma concentration of tapentadol valine carbamate,"[1]; male monkey, oral tapentadol valine carbamate 10 mg tapentadol free base equiv/kg, 2 h, individual animals 1-5",31.8 ng/mL and 71.3 ng/mL and 58.9 ng/mL and 49.4 ng/mL and 87.9 ng/mL
same,Plasma concentration of tapentadol valine carbamate,"[1]; male monkey, oral tapentadol valine carbamate 10 mg tapentadol free base equiv/kg, 2 h, mean",59.9 ng/mL
same,Plasma concentration of tapentadol valine carbamate,"[1]; male monkey, oral tapentadol valine carbamate 10 mg tapentadol free base equiv/kg, 3 h, individual animals 1-5",10.7 ng/mL and 23.1 ng/mL and 25.2 ng/mL and 16.4 ng/mL and 22.1 ng/mL
same,Plasma concentration of tapentadol valine carbamate,"[1]; male monkey, oral tapentadol valine carbamate 10 mg tapentadol free base equiv/kg, 3 h, mean",19.5 ng/mL
same,Plasma concentration of tapentadol valine carbamate,"[1]; male monkey, oral tapentadol valine carbamate 10 mg tapentadol free base equiv/kg, 4 h, individual animals 1-5",5.49 ng/mL and 15.1 ng/mL and 25.7 ng/mL and 12.7 ng/mL and 6.89 ng/mL
same,Plasma concentration of tapentadol valine carbamate,"[1]; male monkey, oral tapentadol valine carbamate 10 mg tapentadol free base equiv/kg, 4 h, mean",13.2 ng/mL
same,Plasma concentration of tapentadol valine carbamate,"[1]; male monkey, oral tapentadol valine carbamate 10 mg tapentadol free base equiv/kg, 6 h, individual animals 1-5",4.60 ng/mL and 10.0 ng/mL and 17.0 ng/mL and 4.51 ng/mL and 3.93 ng/mL
same,Plasma concentration of tapentadol valine carbamate,"[1]; male monkey, oral tapentadol valine carbamate 10 mg tapentadol free base equiv/kg, 6 h, mean",8.01 ng/mL
same,Plasma concentration of tapentadol valine carbamate,"[1]; male monkey, oral tapentadol valine carbamate 10 mg tapentadol free base equiv/kg, 9 h, individual animals 1-5",1.93 ng/mL and 7.34 ng/mL and 5.61 ng/mL and 1.11 ng/mL and 1.86 ng/mL
same,Plasma concentration of tapentadol valine carbamate,"[1]; male monkey, oral tapentadol valine carbamate 10 mg tapentadol free base equiv/kg, 9 h, mean",3.57 ng/mL
same,Plasma concentration of tapentadol valine carbamate,"[1]; male monkey, oral tapentadol valine carbamate 10 mg tapentadol free base equiv/kg, 12 h, individual animals 1-5",0.741 ng/mL and 2.97 ng/mL and 3.04 ng/mL and 0.716 ng/mL and 0.929 ng/mL
same,Plasma concentration of tapentadol valine carbamate,"[1]; male monkey, oral tapentadol valine carbamate 10 mg tapentadol free base equiv/kg, 12 h, mean",1.68 ng/mL
same,concentration at 0.083 h,"[1]; male, cynomolgus monkey, plasma, iv, 0.5 mg tapentadol free base equiv/kg, male monkey, i.v. tapentadol valine carbamate 0.5 mg tapentadol free base equiv/kg, 0.083 h, mean",969 ng/mL
same,concentration at 0.25 h,"[1]; male, cynomolgus monkey, plasma, iv, 0.5 mg tapentadol free base equiv/kg, male monkey, i.v. tapentadol valine carbamate 0.5 mg tapentadol free base equiv/kg, 0.25 h, mean",711 ng/mL
same,concentration at 0.5 h,"[1]; male, cynomolgus monkey, plasma, iv, 0.5 mg tapentadol free base equiv/kg, male monkey, i.v. tapentadol valine carbamate 0.5 mg tapentadol free base equiv/kg, 0.5 h, mean",471 ng/mL
same,concentration at 1 h,"[1]; male, cynomolgus monkey, plasma, iv, 0.5 mg tapentadol free base equiv/kg, male monkey, i.v. tapentadol valine carbamate 0.5 mg tapentadol free base equiv/kg, 1 h, mean",255 ng/mL
same,concentration at 2 h,"[1]; male, cynomolgus monkey, plasma, iv, 0.5 mg tapentadol free base equiv/kg, male monkey, i.v. tapentadol valine carbamate 0.5 mg tapentadol free base equiv/kg, 2 h, mean",98.6 ng/mL
same,concentration at 4 h,"[1]; male, cynomolgus monkey, plasma, iv, 0.5 mg tapentadol free base equiv/kg, male monkey, i.v. tapentadol valine carbamate 0.5 mg tapentadol free base equiv/kg, 4 h, mean",16 ng/mL
same,concentration at 6 h,"[1]; male, cynomolgus monkey, plasma, iv, 0.5 mg tapentadol free base equiv/kg, male monkey, i.v. tapentadol valine carbamate 0.5 mg tapentadol free base equiv/kg, 6 h, mean",4.39 ng/mL
same,concentration at 9 h,"[1]; male, cynomolgus monkey, plasma, iv, 0.5 mg tapentadol free base equiv/kg, male monkey, i.v. tapentadol valine carbamate 0.5 mg tapentadol free base equiv/kg, 9 h, mean",1.25 ng/mL
same,half-life,"[1]; male, cynomolgus monkey, plasma, iv, 0.5 mg/kg, male monkey, i.v. tapentadol valine carbamate 0.5 mg tapentadol free base equiv/kg, calculated as ln2/mean k",1.4 h
same,AUC,[1]; [5],680 ng·h/mL
same,AUC(0-t),[1]; [5],678 ng·h/mL
same,clearance,[1]; [5],12.2 mL/min/kg
same,Vd,[1]; [5],0.75 L/kg
same,half-life,[1]; [5],1.5 h
same,AUC,[1]; [6],883 ng·h/mL
same,C0,[1]; [6],1190 ng/mL
same,AUC(0-t),[1]; [6],880 ng·h/mL
same,clearance,[1]; [6],9.63 mL/min/kg
same,Vd,[1]; [6],0.564 L/kg
same,half-life,"[1]; male, cynomolgus monkey, plasma, po, 1 mg tapentadol free base equiv/kg, male monkey, oral tapentadol valine carbamate 1 mg tapentadol free base equiv/kg, calculated as ln2/mean k",2.47 h
same,half-life,[1]; [7],2.28 h
same,AUC,[1]; [8],316 ng·h/mL
same,Cmax,[1]; [8],164 ng/mL
same,AUC(0-t),[1]; [8],309 ng·h/mL
same,Tmax,[1]; [7],0.5 h
same,Tmax,"[1]; male, cynomolgus monkey, plasma, po, 1 mg tapentadol free base equiv/kg, male monkey, oral tapentadol valine carbamate 1 mg tapentadol free base equiv/kg, median",0.5 h
same,prodrug absorbed after oral administration,"[1]; monkey, comparison of AUC after oral (Table 13) and intravenous dosing (Table 12)",at least 36%
same,EC50,"[2]; Cavia porcellus, EFS 14 Hz, non-cumulative 10 nM-30 μM, read-out: approximate EC50, effect on electrical field stimulation response",~10 µM
same,reduction in the opioid effects on ileal smooth muscle compared to tapentadol,[2]; EFS,50 fold
